From the supplement of paper PMC11424490

Tests used:
SW837 [1] = experiment: fitted bottom plateau of viability curve, % of DMSO control; higher = less maximal inhibition; extreme values may be limits of the assay
Description: (§1)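 CellTiter-Glo proliferation assay in KRAS G12C mutant NCI-H2122 (72 h), SW837 (144 h) and NCI-H358 cells in 384-well plates. Monotherapy dose response was fitted with a four-parameter curve after normalisation to DMSO controls (% of control, PoC). IC50 is the relative IC50, averaged over replicates. Bottom is the fitted lower plateau in %PoC; Max.Conc. is the top dose tested.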

NCI-H2122 [2] = experiment: as above
Description: as §1

NCI-H2122 [3] = experiment: relative IC50 of cell viability (CellTiter-Glo); higher = less potent
Description: as §1

SW837 [4] = experiment: combination cScore with sotorasib (Bliss gap around IC50) (%PoC); higher = stronger additive effect
How it was run: (§2)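 Scores represent the average Bliss-independence gap, expected minus measured viability, in a field surrounding both monotherapy IC50s, with the top concentrations used when no IC50 was reached. Cells (NCI-H2122, NCI-H358, SW837) were seeded at 500 or 800 per well in 384-well plates, dosed in matrices at 24 h and grown for 72 h, with SW837 grown for 144 h. Viability was measured by CellTiter-Glo, normalised to vehicle wells and fitted with four-parameter curves.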

NCI-H2122 [5] = experiment: as above
How it was run: as §2

relative IC50 of cell viability (NCI-H2122 [3]) | Compound | fitted bottom plateau of viability curve (SW837 [1]) | fitted bottom plateau of viability curve (NCI-H2122 [2]) | combination cScore with sotorasib (SW837 [4]) | combination cScore with sotorasib (NCI-H2122 [5])
3.12 µM | CO[C@H]1/C=C/C[C@H](C)[C@@H](C)S(=O)(=O)NC(=O)c2ccc3c(c2)N(C[C@@H]2CC[C@H]21)C[C@@]1(CCCc2cc(Cl)ccc21)CO3 [AMG176] (top concentration tested 10000 nM) | 96.3% | 45.9% |  | 
8.09 µM | CC1(C)CCC(CN2CCN(c3ccc(C(=O)NS(=O)(=O)c4ccc(NCC5CCOCC5)c([N+](=O)[O-])c4)c(Oc4cnc5[nH]ccc5c4)c3)CC2)=C(c2ccc(Cl)cc2)C1 [ABT-199] (top concentration tested 10000 nM) | 95.3% | 65.6% |  | 
1.36 µM | Nc1ncn([C@H]2C[C@H](O)[C@@H](CO)O2)c(=O)n1 [Decitabine] (top concentration tested 10000 nM) | 54% | 57.7% |  | 
9.65 µM | COc1ccc2nc3ccc(OC)cc3c(SCCCN)c2c1 (top concentration tested 10000 nM) | 84.2% | 59% |  | 
0.945 µM | O=c1[nH]cc(F)c(=O)[nH]1 [Fluorouracil (5-FU)] (top concentration tested 1000.2 nM) | 96.6% | 64.6% |  | 
1.94 µM | Nc1ncn([C@@H]2O[C@H](CO)[C@@H](O)[C@H]2O)c(=O)n1 [Azacitidine] (top concentration tested 9999.8 nM) | 93% | 14.4% |  | 
2.14 µM | CS(=O)(=O)c1ccc(-c2cnc(N)c(C(=O)Nc3ccccc3)n2)cc1 [VE-821] (top concentration tested 10000 nM) | 82.4% | 34.2% |  | 
8.59 µM | COc1cc2c(NC3CCN(C(C)C)CC3)nc(C3CCCCC3)nc2cc1OCCCN1CCCC1 [UNC0638] (top concentration tested 10000 nM) | 88.9% | 46.7% |  | 
 | CN(C)C(=N)NC(=N)N [Metformin] + C=CC(=O)N1CCN(c2nc(=O)n(-c3c(C)ccnc3C(C)C)c3nc(-c4c(O)cccc4F)c(F)cc23)[C@@H](C)C1 [sotorasib] |  |  | -0.945 | 5.93
 | O=C(Cc1ccccc1)Nc1nnc(CCSCCc2nnc(NC(=O)Cc3ccccc3)s2)s1 [BPTES] + C=CC(=O)N1CCN(c2nc(=O)n(-c3c(C)ccnc3C(C)C)c3nc(-c4c(O)cccc4F)c(F)cc23)[C@@H](C)C1 [sotorasib] |  |  | -3.09 | 4.36
 | N[C@@H](Cc1ccc(N(CCCl)CCCl)cc1)C(=O)O [Melphalan] + C=CC(=O)N1CCN(c2nc(=O)n(-c3c(C)ccnc3C(C)C)c3nc(-c4c(O)cccc4F)c(F)cc23)[C@@H](C)C1 [sotorasib] |  |  | 4.26 | 2.92
 | O=C(O)CCCCC(CCSCc1ccccc1)SCc1ccccc1 (centres undefined) [CPI-613] + C=CC(=O)N1CCN(c2nc(=O)n(-c3c(C)ccnc3C(C)C)c3nc(-c4c(O)cccc4F)c(F)cc23)[C@@H](C)C1 [sotorasib] |  |  | -5.35 | 19
 | O=C(O)c1nn(Cc2ccc(Cl)cc2Cl)c2ccccc12 [Lonidamine] + C=CC(=O)N1CCN(c2nc(=O)n(-c3c(C)ccnc3C(C)C)c3nc(-c4c(O)cccc4F)c(F)cc23)[C@@H](C)C1 [sotorasib] |  |  | 2.86 | -0.87
 | CC[C@]1(O)C[C@@H]2CN(CCc3c([nH]c4ccccc34)[C@@](C(=O)OC)(c3cc4c(cc3OC)N(C)[C@H]3[C@@](O)(C(=O)OC)[C@H](OC(C)=O)[C@]5(CC)C=CCN6CC[C@]43[C@@H]65)C2)C1 [Vinblastine] + C=CC(=O)N1CCN(c2nc(=O)n(-c3c(C)ccnc3C(C)C)c3nc(-c4c(O)cccc4F)c(F)cc23)[C@@H](C)C1 [sotorasib] |  |  | 8.44 | 6.11
 | COc1cc2cc(c1Cl)N(C)C(=O)C[C@H](OC(=O)C(C)C)[C@]1(C)O[C@@H]1[C@H](C)[C@@H]1C[C@@](O)(NC(=O)O1)[C@H](OC)/C=C/C=C(\C)C2 [Ansamitocin P3] + C=CC(=O)N1CCN(c2nc(=O)n(-c3c(C)ccnc3C(C)C)c3nc(-c4c(O)cccc4F)c(F)cc23)[C@@H](C)C1 [sotorasib] |  |  | -0.32 | 5.88
 | COc1ncc(-c2nc3c(n2C(C)C)[C@H](c2ccc(Cl)cc2)N(c2cc(Cl)cn(C)c2=O)C3=O)c(OC)n1 [HDM-201] + C=CC(=O)N1CCN(c2nc(=O)n(-c3c(C)ccnc3C(C)C)c3nc(-c4c(O)cccc4F)c(F)cc23)[C@@H](C)C1 [sotorasib] |  |  | 7.32 | 1.73
 | Nc1ncn([C@@H]2O[C@H](CO)[C@@H](O)[C@H]2O)c(=O)n1 [Azacitidine] + C=CC(=O)N1CCN(c2nc(=O)n(-c3c(C)ccnc3C(C)C)c3nc(-c4c(O)cccc4F)c(F)cc23)[C@@H](C)C1 [sotorasib] |  |  | 18.6 | 3.93
 | CCN(CC)CCNC(=O)c1c(C)[nH]c(/C=C2\C(=O)Nc3ccc(F)cc32)c1C [Sunitinib] + C=CC(=O)N1CCN(c2nc(=O)n(-c3c(C)ccnc3C(C)C)c3nc(-c4c(O)cccc4F)c(F)cc23)[C@@H](C)C1 [sotorasib] |  |  | 23 | 10.9
 | COc1cc(OC2CCN(C)CC2)ccc1Nc1ncc2c(n1)n(C1CCCC1)c(=O)n2C [AZ3146] + C=CC(=O)N1CCN(c2nc(=O)n(-c3c(C)ccnc3C(C)C)c3nc(-c4c(O)cccc4F)c(F)cc23)[C@@H](C)C1 [sotorasib] |  |  | 19.4 | 4.43
 | COc1cc2nccc(Oc3ccc(NC(=O)C4(C(=O)Nc5ccc(F)cc5)CC4)cc3)c2cc1OC [XL-184] + C=CC(=O)N1CCN(c2nc(=O)n(-c3c(C)ccnc3C(C)C)c3nc(-c4c(O)cccc4F)c(F)cc23)[C@@H](C)C1 [sotorasib] |  |  | 14 | 11.7
 | CC(C)Nc1cc(-c2c[nH]c(C(=O)N[C@H](CO)c3cccc(Cl)c3)c2)c(Cl)cn1 [Ulixertinib] + C=CC(=O)N1CCN(c2nc(=O)n(-c3c(C)ccnc3C(C)C)c3nc(-c4c(O)cccc4F)c(F)cc23)[C@@H](C)C1 [sotorasib] |  |  | 3.35 | -4.67
 | CCN1CCN(c2ccc(Nc3cc(N(C)C(=O)Nc4c(Cl)c(OC)cc(OC)c4Cl)ncn3)cc2)CC1 [BGJ398] + C=CC(=O)N1CCN(c2nc(=O)n(-c3c(C)ccnc3C(C)C)c3nc(-c4c(O)cccc4F)c(F)cc23)[C@@H](C)C1 [sotorasib] |  |  | 12.1 | 2.52
 | CN(NC(=O)CC(=O)NN(C)C(=S)c1ccccc1)C(=S)c1ccccc1 [Elesclomol] + C=CC(=O)N1CCN(c2nc(=O)n(-c3c(C)ccnc3C(C)C)c3nc(-c4c(O)cccc4F)c(F)cc23)[C@@H](C)C1 [sotorasib] |  |  | 13.4 | 13.6
 | COc1cc2c(Oc3ccc4[nH]c(C)cc4c3F)ncnc2cc1OCCCN1CCCC1 [Cediranib] + C=CC(=O)N1CCN(c2nc(=O)n(-c3c(C)ccnc3C(C)C)c3nc(-c4c(O)cccc4F)c(F)cc23)[C@@H](C)C1 [sotorasib] |  |  | 1.55 | 0.01
 | CCCS(=O)(=O)Nc1ccc(F)c(C(=O)c2c[nH]c3ncc(Cl)cc23)c1F [PLX4720] + C=CC(=O)N1CCN(c2nc(=O)n(-c3c(C)ccnc3C(C)C)c3nc(-c4c(O)cccc4F)c(F)cc23)[C@@H](C)C1 [sotorasib] |  |  | 2.2 | 17.4
 | c1ccc(-c2nn3c(c2-c2ccnc4cc(OCCN5CCOCC5)ccc24)CCC3)nc1 + C=CC(=O)N1CCN(c2nc(=O)n(-c3c(C)ccnc3C(C)C)c3nc(-c4c(O)cccc4F)c(F)cc23)[C@@H](C)C1 [sotorasib] |  |  | 8.58 | 8.94
 | N#CN=C(NCCCCCCOc1ccc(Cl)cc1)Nc1ccncc1 [GMX1778] + C=CC(=O)N1CCN(c2nc(=O)n(-c3c(C)ccnc3C(C)C)c3nc(-c4c(O)cccc4F)c(F)cc23)[C@@H](C)C1 [sotorasib] |  |  | 7.36 | -13.8
 | Cc1ccc(NC(=O)c2ccc(CN3CCN(C)CC3)cc2)cc1Nc1nccc(-c2cccnc2)n1 [Imatinib] + C=CC(=O)N1CCN(c2nc(=O)n(-c3c(C)ccnc3C(C)C)c3nc(-c4c(O)cccc4F)c(F)cc23)[C@@H](C)C1 [sotorasib] |  |  | 2.47 | -1.79
